Reference: US9309242B2, “Substituted pyrido[2,3-b]pyrazines as FGFR kinase inhibitors” (priority 2011, dated 2016)

Experiments:
[1] = target: FGFR4 (h) (Homo sapiens, UniProt P22455); experiment: FGFR4 (enzymatic assay), TR-FRET; type: biochemical; details: FGFR 4 pIC50, enzymatic assay
[2] = target: T1, Ba/F3-FGFR1-transfected cells (Homo sapiens, UniProt P11362); experiment: Ba/F3-FGFR1 (minus IL3) cellular proliferation assay, Alamar Blue; type: cell-based
T1 construct: BAF3-FGFR1 (MIN IL3) pIC50; other: minus IL3
How it was run: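 Viability was measured by resazurin reduction (fluorescence, 540 nm excitation/590 nm emission) after a 4 h Alamar Blue incubation. This followed 24 h of compound treatment at 37 °C, 5% CO2, of 20000 FGFR1-transfected Ba/F3 cells per well in 10% FBS RPMI-1640.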

[3] = test system: Ba/F3-KDR-transfected cells; experiment: Ba/F3-KDR (plus IL3) cellular proliferation assay, counterscreen with 10 ng/ml murine IL3; type: cell-based; details: plus IL3 (10 ng/ml murine IL3, counterscreen); read-out: BAF3-KDR (PLUS IL3) pIC50 (converted)
How it was run: (§1)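 Proliferation is measured as Alamar Blue relative fluorescence units following 24 h compound treatment of 20000 cells per well in 10% FBS medium. The IL3-supplemented run serves as a counterscreen under the same conditions.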

[4] = target: T2, Ba/F3-KDR-transfected cells (Homo sapiens, UniProt P35968); experiment: Ba/F3-KDR (minus IL3) cellular proliferation assay, Alamar Blue; type: cell-based
T2 construct: BAF3-KDR (MIN IL3) pIC50; other: minus IL3
How it was run: as §1

[5] = target: FGFR1 (h) (Homo sapiens, UniProt P11362); experiment: FGFR1 (enzymatic assay), TR-FRET; type: biochemical; details: read-out: FGFR 1 pIC50 (converted)
[6] = test system: Ba/F3-FGFR3-transfected cells; experiment: Ba/F3-FGFR3 (plus IL3) cellular proliferation assay, counterscreen with 10 ng/ml murine IL3; type: cell-based; details: plus IL3 (10 ng/ml murine IL3, counterscreen); read-out: BAF3-FGFR3 (PLUS IL3) pIC50 (converted)
How it was run: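 Viability readout was resazurin reduction (ex 540/em 590 nm) after 4 h, following 24 h compound treatment at 37 °C of FGFR3-transfected Ba/F3 cells (20000/well, RPMI-1640/10% FBS). IL3-dependent counterscreen used identical conditions plus 10 ng/ml murine IL3.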

[7] = target: Ba/F3-FGFR4-transfected cells (Homo sapiens, UniProt P22455); experiment: Ba/F3-FGFR4 cellular proliferation assay, Alamar Blue; type: cell-based
How it was run: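 Proliferation of Ba/F3-FGFR4-transfected cells is gauged by Alamar Blue (resazurin) fluorescence after 24 hours of compound treatment in phenol red free RPMI-1640 with 10% FBS.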

[8] = test system: Ba/F3-FGFR1-transfected cells; experiment: Ba/F3-FGFR1 (plus IL3) cellular proliferation assay, counterscreen with 10 ng/ml murine IL3; type: cell-based; details: plus IL3 (10 ng/ml murine IL3, counterscreen); read-out: BAF3-FGFR1 (PLUS IL3) pIC50 (converted)
How it was run: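 Ba/F3-FGFR1 cells (20000/well) in RPMI-1640 with 10% FBS exposed to compound for 24 h at 37° C., 5% CO2, then Alamar Blue (resazurin) added for 4 h; fluorescence read at ex 540/em 590 nm. Counterscreen run identically with 10 ng/ml murine IL3.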

[9] = target: FGFR2 (h) (Homo sapiens, UniProt P21802); experiment: FGFR2 (enzymatic assay), TR-FRET; type: biochemical; details: enzymatic assay; read-out: FGFR 2 pIC50 (converted)
How it was run: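 Human FGFR2 (150 ng/ml) was incubated with 500 nM Btn-Flt3 substrate and 0.4 μM ATP in 50 mM HEPES pH 7.5, 6 mM MnCl2, 1 mM DTT, 0.1 mM Na3VO4, 0.01% Triton-X-100. Compound was present at 1% DMSO final.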

Sequence of FGFR1 (h) (P11362 22-822): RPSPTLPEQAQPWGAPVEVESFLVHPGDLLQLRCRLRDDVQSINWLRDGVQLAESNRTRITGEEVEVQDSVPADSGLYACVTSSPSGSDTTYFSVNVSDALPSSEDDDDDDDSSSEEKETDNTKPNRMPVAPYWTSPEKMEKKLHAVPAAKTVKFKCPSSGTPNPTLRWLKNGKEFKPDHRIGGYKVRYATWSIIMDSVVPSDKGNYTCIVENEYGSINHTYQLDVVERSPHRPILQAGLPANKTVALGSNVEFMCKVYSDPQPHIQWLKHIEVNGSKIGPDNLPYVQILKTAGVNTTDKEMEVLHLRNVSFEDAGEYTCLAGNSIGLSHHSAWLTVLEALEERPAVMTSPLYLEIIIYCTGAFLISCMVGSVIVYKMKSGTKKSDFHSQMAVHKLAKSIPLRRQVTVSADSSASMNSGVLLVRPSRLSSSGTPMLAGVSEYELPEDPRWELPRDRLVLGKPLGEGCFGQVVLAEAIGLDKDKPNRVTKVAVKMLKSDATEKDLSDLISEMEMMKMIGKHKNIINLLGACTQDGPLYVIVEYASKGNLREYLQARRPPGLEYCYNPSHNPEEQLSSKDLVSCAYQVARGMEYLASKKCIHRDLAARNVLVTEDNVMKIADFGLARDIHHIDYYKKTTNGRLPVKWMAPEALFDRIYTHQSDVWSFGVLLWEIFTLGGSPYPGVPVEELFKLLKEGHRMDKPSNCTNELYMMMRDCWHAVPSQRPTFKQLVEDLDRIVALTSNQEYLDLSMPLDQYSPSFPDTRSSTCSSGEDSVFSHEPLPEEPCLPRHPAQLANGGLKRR
Sequence of FGFR4 (h) (P22455 22-802): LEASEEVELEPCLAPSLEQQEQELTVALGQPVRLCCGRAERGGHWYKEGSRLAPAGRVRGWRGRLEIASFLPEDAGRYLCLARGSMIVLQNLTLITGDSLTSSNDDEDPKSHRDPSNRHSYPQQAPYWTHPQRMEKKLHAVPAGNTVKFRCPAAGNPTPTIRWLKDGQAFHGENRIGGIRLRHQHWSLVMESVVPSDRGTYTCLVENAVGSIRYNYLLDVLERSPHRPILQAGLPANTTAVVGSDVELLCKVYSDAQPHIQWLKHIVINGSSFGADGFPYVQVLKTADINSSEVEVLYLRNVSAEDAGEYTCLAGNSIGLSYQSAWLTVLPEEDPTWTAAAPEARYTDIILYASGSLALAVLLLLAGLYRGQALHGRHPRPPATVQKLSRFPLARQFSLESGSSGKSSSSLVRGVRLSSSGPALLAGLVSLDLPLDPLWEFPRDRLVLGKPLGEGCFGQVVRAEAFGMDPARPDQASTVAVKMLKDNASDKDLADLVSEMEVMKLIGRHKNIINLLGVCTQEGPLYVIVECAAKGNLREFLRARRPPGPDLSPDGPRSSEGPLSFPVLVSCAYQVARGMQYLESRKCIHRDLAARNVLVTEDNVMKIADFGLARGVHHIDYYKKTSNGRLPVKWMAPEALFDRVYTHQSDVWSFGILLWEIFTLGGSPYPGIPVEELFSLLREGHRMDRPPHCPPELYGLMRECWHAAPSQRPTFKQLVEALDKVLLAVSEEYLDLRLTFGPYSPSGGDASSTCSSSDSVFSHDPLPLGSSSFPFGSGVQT
Sequence of Ba/F3-FGFR4-transfected cells (P22455 whole entry, change not shown): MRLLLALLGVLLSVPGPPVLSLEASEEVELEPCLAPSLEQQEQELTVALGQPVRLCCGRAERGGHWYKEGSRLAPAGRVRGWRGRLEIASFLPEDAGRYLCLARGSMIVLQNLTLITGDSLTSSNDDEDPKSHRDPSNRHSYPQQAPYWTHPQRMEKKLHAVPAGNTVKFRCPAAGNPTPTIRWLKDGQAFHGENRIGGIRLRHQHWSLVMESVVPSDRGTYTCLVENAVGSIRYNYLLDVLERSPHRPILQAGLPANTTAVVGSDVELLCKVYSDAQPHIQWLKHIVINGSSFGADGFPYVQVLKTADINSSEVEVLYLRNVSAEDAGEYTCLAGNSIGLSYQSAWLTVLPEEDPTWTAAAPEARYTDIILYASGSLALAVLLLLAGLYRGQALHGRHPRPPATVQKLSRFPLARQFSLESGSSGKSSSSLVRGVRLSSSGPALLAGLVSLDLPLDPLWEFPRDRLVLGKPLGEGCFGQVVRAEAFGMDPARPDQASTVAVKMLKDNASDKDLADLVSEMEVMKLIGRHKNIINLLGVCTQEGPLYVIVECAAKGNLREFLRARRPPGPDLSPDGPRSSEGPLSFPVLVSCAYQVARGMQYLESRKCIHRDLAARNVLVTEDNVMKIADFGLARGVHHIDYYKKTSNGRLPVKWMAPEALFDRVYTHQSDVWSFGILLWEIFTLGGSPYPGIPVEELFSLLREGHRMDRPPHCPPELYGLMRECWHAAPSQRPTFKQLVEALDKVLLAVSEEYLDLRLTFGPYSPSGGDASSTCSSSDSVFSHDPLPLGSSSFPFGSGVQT
T2 sequence (P35968 whole entry, change not shown): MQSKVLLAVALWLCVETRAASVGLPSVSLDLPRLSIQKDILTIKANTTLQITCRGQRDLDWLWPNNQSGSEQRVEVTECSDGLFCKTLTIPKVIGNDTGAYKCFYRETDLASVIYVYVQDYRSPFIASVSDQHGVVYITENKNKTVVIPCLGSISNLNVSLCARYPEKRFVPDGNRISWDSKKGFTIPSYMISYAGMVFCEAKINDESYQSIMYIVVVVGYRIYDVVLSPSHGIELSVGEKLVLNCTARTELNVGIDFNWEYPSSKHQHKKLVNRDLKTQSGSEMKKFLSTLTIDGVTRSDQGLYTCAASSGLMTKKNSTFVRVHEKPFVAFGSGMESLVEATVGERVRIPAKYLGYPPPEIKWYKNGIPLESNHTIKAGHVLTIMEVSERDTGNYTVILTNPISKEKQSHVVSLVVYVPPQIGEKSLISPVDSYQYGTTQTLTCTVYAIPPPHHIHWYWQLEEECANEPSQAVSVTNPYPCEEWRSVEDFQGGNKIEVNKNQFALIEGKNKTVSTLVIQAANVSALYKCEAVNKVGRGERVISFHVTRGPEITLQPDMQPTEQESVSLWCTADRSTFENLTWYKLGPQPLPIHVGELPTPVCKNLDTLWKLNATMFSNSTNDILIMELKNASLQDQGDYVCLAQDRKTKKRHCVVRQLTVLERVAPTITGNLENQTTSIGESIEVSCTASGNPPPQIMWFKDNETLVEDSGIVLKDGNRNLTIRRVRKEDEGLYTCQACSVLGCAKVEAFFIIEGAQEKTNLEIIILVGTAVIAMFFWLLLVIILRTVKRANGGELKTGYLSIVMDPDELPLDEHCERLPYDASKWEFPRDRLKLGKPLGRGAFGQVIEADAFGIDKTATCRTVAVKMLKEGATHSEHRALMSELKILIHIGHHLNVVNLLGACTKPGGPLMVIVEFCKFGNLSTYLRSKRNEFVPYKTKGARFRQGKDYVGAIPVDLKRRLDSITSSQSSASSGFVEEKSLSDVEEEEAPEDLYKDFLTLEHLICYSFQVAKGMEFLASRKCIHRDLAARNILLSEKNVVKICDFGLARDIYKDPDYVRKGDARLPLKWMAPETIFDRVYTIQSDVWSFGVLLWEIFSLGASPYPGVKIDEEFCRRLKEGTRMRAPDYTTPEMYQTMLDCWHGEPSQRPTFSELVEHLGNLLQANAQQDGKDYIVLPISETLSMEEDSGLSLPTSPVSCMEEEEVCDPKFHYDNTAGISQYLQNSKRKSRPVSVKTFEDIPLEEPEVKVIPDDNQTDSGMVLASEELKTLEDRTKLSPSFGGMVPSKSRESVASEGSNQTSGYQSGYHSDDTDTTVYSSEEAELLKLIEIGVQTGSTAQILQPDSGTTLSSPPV
Sequence of FGFR2 (h) (P21802 22-821): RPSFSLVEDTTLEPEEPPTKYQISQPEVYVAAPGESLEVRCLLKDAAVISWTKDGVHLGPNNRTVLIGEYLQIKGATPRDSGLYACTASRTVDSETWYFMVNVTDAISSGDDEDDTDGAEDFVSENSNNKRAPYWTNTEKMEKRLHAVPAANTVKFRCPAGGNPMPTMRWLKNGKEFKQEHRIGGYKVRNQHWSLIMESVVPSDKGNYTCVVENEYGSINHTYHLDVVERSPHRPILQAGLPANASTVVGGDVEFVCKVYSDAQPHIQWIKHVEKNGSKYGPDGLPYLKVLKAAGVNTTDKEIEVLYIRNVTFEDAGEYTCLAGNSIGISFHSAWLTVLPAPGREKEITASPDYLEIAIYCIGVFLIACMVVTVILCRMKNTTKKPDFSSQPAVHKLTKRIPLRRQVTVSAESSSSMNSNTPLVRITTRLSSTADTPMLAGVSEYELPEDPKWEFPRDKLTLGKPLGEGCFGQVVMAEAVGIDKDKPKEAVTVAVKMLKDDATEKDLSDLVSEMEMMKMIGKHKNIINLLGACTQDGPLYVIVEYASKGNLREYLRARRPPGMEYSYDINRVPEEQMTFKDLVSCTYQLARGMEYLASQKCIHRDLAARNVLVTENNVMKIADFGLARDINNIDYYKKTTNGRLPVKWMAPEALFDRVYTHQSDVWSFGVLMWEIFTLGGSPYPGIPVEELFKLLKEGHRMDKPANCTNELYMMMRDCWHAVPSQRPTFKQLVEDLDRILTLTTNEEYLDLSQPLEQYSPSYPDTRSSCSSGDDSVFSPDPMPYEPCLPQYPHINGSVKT

| Compound | IC50 [1] | BAF3-FGFR1 (MIN IL3) pIC50 [2] | IC50 [3] | BAF3-KDR (MIN IL3) pIC50 [4] | IC50 [5] | IC50 [6] | BAF3-FGFR4 pIC50 [7] | IC50 [8] | IC50 [9] |
| --- | --- | --- | --- | --- | --- | --- | --- | --- | --- |
| COc1cc(OC)c(F)c(N(CCN)c2ccc3ncc(-c4cnn(C)c4)nc3n2)c1 [Compound 168] | 4.57 nM | 7.48 | > 10000 nM | 5.57 | 1.7 nM | > 10000 nM | 6.72 | > 10000 nM | 2.04 nM |
| COc1cc(OC)cc(N(Cc2ncc[nH]2)c2ccc3ncc(-c4ccn(C)c4)nc3n2)c1 [Compound 198] | 0.661 nM | 8.48 | > 10000 nM | 6.68 | 0.309 nM | > 10000 nM | 8.05 | > 10000 nM | 1.07 nM |
| COc1cc(OC)c(F)c(N(CCNC2COC2)c2ccc3ncc(-c4cnn(C)c4)nc3n2)c1F (single isomer, unassigned) [Compound 162] | 2.57 nM | 7.88 | > 10000 nM | 6.61 | 1.17 nM | > 10000 nM | ~7.56 | > 10000 nM | 2.19 nM |
| COc1cc(OC)c(F)c(N(CCN2CCOCC2)c2ccc3ncc(-c4cnn(C)c4)nc3n2)c1 [Compound 149] | 5.13 nM | 7.45 | > 10000 nM | 5.89 | 2.45 nM | > 10000 nM | 7.12 | > 10000 nM | 3.09 nM |
| Cn1cc(-c2cnc3ccc(N(Cc4ncc[nH]4)c4c(F)c(F)cc(F)c4F)nc3n2)cn1 [Compound 175] | 4.79 nM | 6.87 | > 10000 nM | <5 | 4.07 nM | > 10000 nM | 6.75 | > 10000 nM | 1.91 nM |
| COc1cc(OC)cc(N(CCN2CCOCC2)c2ccc3ncc(-c4cnn(C)c4)nc3n2)c1 [Compound 146] | 17.8 nM | 6.87 | > 10000 nM | 5.28 | 6.76 nM | > 10000 nM | ~6.58 | > 10000 nM | 4.68 nM |
| COc1cc(/N=c2\ccc3ncc(-c4cnn(C)c4)nc3n2CC2COC2)c(F)c(OC)c1 [Compound 143] | 1.02 nM | 5.48 | > 10000 nM | <5 | 1.26 nM | > 10000 nM | 5.29 | > 10000 nM | 1.51 nM |
| COc1cc(/N=c2\ccc3ncc(-c4cnn(C)c4)nc3n2CC2CCC(=O)N2C)c(F)c(OC)c1 (stereo not drawn) [Compound 158] | 2.51 nM | 7.18 | > 10000 nM | 6.16 | 1.74 nM | > 10000 nM | 6.78 | > 10000 nM | 1.86 nM |
| COc1ccc(Cl)c(N(CC2CCC(=O)N2)c2ccc3ncc(-c4cnn(C)c4)nc3n2)c1Cl (single isomer, unassigned) [Compound 90] | ~912 nM | 5.04 | > 10000 nM | <5 | 166 nM | > 10000 nM | <5 | > 10000 nM | 129 nM |
| COc1cc(OC)c(F)c(N(CC2CCOC2)c2ccc3ncc(-c4cnn(C)c4)nc3n2)c1 (single isomer, unassigned) [Compound 170] | 4.9 nM | 6.92 | > 10000 nM | 5.56 | 2.34 nM | > 10000 nM | 6.49 | > 10000 nM | 2.14 nM |
| COc1cc(OC)cc(N(Cc2nncn2CCO)c2ccc3ncc(-c4cnn(C)c4)nc3n2)c1 [Compound 204] | 60.3 nM | 6.15 | > 10000 nM | <5 | 11.2 nM | > 10000 nM | 5.49 | > 10000 nM | 11 nM |
| COc1cc(OC)cc(N(CC2CCCOC2)c2ccc3ncc(-c4cnn(C)c4)nc3n2)c1 (stereo not drawn) [Compound 166] | 9.33 nM | 6.72 | > 10000 nM | 5.07 | 5.62 nM | > 10000 nM | 6.24 | > 10000 nM | 3.16 nM |
| COc1cc(OC)c(F)c(N(CC(=O)NCCO)c2ccc3ncc(-c4cnn(C)c4)nc3n2)c1 [Compound 230] | 42.7 nM | 6.09 | > 10000 nM | 5.04 | 7.59 nM | > 10000 nM | 5.73 | > 10000 nM | 7.41 nM |
| COc1cc(OC)c(F)c(N(Cc2ncc[nH]2)c2ccc3ncc(-c4cnn(CC(C)(C)O)c4)nc3n2)c1 [Compound 240] | 1.91 nM | 8.57 | > 10000 nM | 6.89 | 0.912 nM | > 10000 nM | 7.87 | > 10000 nM | 2.57 nM |
| COc1cc(/N=c2\ccc3ncc(-c4cnn(C)c4)nc3n2CCN)c(F)c(OC)c1 [Compound 167] | 4.17 nM | 6.74 | > 10000 nM | 5.63 | 1.86 nM | > 10000 nM | 6.31 | > 10000 nM | 2.19 nM |
